The results in this text go back to patent US8557875B2, “Gene transfer agent composition containing polyamidoamine dendron” (Public University Corporation Osaka Prefecture University, priority 2009, dated 2013).

Test [1] deals with NHDF-ad cells. Put plainly: Gene transfer (GFP expression, luciferase activity) versus commercial agents (Example 6). The class given is cell-based, human. The settings on record: single transfection, 48 hours. As to the method: pEGFP-C1 expressing a green fluorescent protein was used as a gene transfer plasmid; and NHDF-ad cells, which were normal […] cells derived from adult humans and also used for the production of iPS cells, were used as target cells. Lipoplexes were individually prepared using DL-U2. Then, gene transfer was performed.
(NHDF-ad cells: 2.5×10^4 cells/well·DMEM+10% FBS (Pe/St) 500 μl)
(i) A 20 mM Tris-HCl (pH 7.4) buffer was dispensed into two tubes at, individually, 56.3 μl (for NP ratio=3) and 37.5 μl (for NP ratio=6).
(ii) 1.0 μg of plasmid DNA (pCAG-GFP) was added to each of the two tubes prepared in step (i) at 2 μl (1.0 μg), and the contents were stirred. […]
(vii) 48 hours later, luciferase activity was measured according to the protocol of the luciferase assay system (Promega, E1501).
Lipofectamine LTX: Gene transfer was performed according to the protocol, and luciferase activity was measured according to the protocol of the luciferase assay system (Promega, E1501).
FuGENE HD: Gene transfer was performed according to the protocol, and luciferase activity was measured according to the protocol of the luciferase assay system (Promega, E1501).
FuGENE6: Gene transfer was performed according to the protocol, and luciferase activity was measured according to the protocol of the luciferase assay system (Promega, E1501).

Test [2] deals with K562. Put plainly: Gene transfer (GFP expression, luciferase activity) versus commercial agents (Example 5). It is filed as cell-based. The settings on record: K562 non-adherent cells; compared with Lipofectamine LTX and FuGENE HD. Here is the method: pEGFP-C1 expressing a green fluorescent protein was used as a gene transfer plasmid; and adherent cells COS-7 and Hela-S3, and non-adherent cells K562, which were established cell lines, were used as target cells. Lipoplexes were individually prepared using DL-U2. Then, gene transfer was performed.
(i) A 20 mM Tris-HCl (pH 7.4) buffer was dispensed into three tubes at 35.5 μl (for NP ratio=6) for each of two tubes, and 23 μl (for NP ratio=8) for the remaining tube.
(ii) 1.0 μg of plasmid DNA (pCAG-GFP) was added to each of the three tubes prepared in step (i) at 2 μl (1.0 μg), and the contents were stirred.
(iii) A DL-U2 liposome solution was added to the three tubes prepared in step (ii) at 37.5 μl (N/P ratio=6) for each of two tubes, and 50 μl (N/P ratio=8) for the remaining tube.
(iv) 25 μl of an Opti-MEM (registered trademark) I Reduced-Serum Medium was further added, and the whole was thoroughly mixed and allowed to stand at room temperature for 5 minutes.
50 μl of the DL-plasmid DNA complex solution (N/P ratio=8) was added and mixed with the K562 cells. […]
(vii) 48 hours later, luciferase activity was measured according to the protocol of the luciferase assay system (Promega, E1501) (relative values based on the activity of LTX defined as 1 were graphed).

SMILES strings stand for the structures.

As for `CCCCCCCC/C=C\CCCCCCCCN(CCCCCCCC/C=C\CCCCCCCC)CCC(=O)NCCN(CCC(=O)NCCN)CCC(=O)NCCN` (racemic) [DL-G1-U2], the “gene transfer (GFP gene) efficiency” value in test [1] is recorded as “allowed the gene to be transferred into the cells at a remarkably high frequency”. In test [2], the gene transfer activity entry is given as “excellent gene transfer activity”.
